Results on three compounds are retold here after patent publication US6689777B2 (Kenneth S. Warren Institute, priority 2001, dated 2004).

Experiment [1] relates to P. falciparum. Description: P. falciparum growth in culture ([3H]-hypoxanthine incorporation). It counts as cell-based. Conditions: Plasmodium falciparum, Table 3, naphthothiazolium salts, in culture, read-out: IC50 vs. P. falc.
Experiment [2] concerns P. falciparum chloroquine resistant strain (CQR). Description: P. falciparum growth in culture, chloroquine resistant strain ([3H]-hypoxanthine incorporation). It counts as cell-based. Conditions: Plasmodium falciparum, Table 3, read-out: IC50 vs. P. falc. in CQR. The method, then:
(§1) To determine the effectiveness of the compounds of the present invention against the erythrocytic stage of the malarial parasite, P. falciparum was grown in human erythrocyte suspensions and maintained at 37° C. in candle jars according to the method of Trager and Jensen (15,16). Parasites were stage-synchronized by incubating mainly ring-stage infected erythrocytes in 5% sorbitol for 10 minutes at room temperature (17). Cultures undergo one growth cycle (2 days) before use. Strains used include the chloroquine sensitive strains D10 and HB3, and the chloroquine resistant isolates Dd2 and FCR.
Parasite growth was determined by measuring incorporation of [^3H]-hypoxanthine into the nucleic acids of the parasite (18). Effects of the compounds of the present invention on parasite growth was determined by measuring the reduction in incorporation of radiolabel as compared to controls. […] After 18 h the plates are harvested onto glass fiber filter 96 well plates using a cell harvester, dried, and the amount of radioactivity is determined. […]
Parasite growth was determined by measuring incorporation of [^3H]-hypoxanthine into the nucleic acids of the parasite as previously described (23). Effects of the compounds of the present invention on parasite growth was determined by measuring the reduction in incorporation of radiolabel as compared to controls. […] The, amount of radioactivity was determined. […]

The next experiment concerns synthetic hemozoin. Briefly: Depolymerization of synthetic hemozoin in vitro. It counts as biochemical. Conditions: 50 mM test compound, acetate buffer pH 5.0, 37° C., 16 hours. As for the experimental part: This activity is evaluated by incubating a suspension of monomer-free hemozoin at 37° C. with compounds of the present invention for 16 hours. After incubation, hemozoin is separated from any solubilized heme and soluble heme oligomers, the oligomers depolymerized, and the heme present in the supernatants determined.
The synthesis of synthetic hemozoin is carried out as previously described (26). In brief, 60 μmoles of hematin was dissolved in 8 ml of 0.1N NaOH. Following dissolution 49 mmoles of glacial acetic acid was added and the suspension heated at 70° C. overnight. The precipitate was then washed extensively with LPS-free water. In order to remove unreacted heme the precipitate was extracted with 0.1M sodium bicarbonate (pH 9.1) for three hours. The remaining insoluble material was recovered by centrifugation, resuspended in EtOH and transferred to sterile Eppendorf tubes. The material was washed several times in EtOH and finally resuspended in LPS-free double-distilled H2O. The hemozoin preparation was then tested for endotoxin by using the Limulus Amebocyte Lysate test following manufacturer's instructions. Although the preparation of LPS-free hemozoin from native or synthetic sources is not critical for in vitro depolymerization studies, it is critical for studies involving monocytes and animals (see Examples below). Small amounts of LPS can evoke a considerable cytokine response and interfere with interpretation of results. The amount of heme in the final product was determined from a small aliquot using the pyridine-hemochrome method as previously described (26). The preparations are stored at 4° C. until used.
A suspension of monomer-free hemozoin (equivalent to 2 mM free heme) as prepared above was incubated at 37° C. with […] test compound in total volume of 500 μl in acetate buffer (pH: 5.0) in siliconized Eppendorf tubes (Brinkmann Instruments, Westbury, N.Y.) for 16 hours. A control sample containing distilled H2O instead of hemozoin was included. The samples were centrifuged at 14,000 rpm (Eppendorf centrifuge model 5415C, Brinkmann Instruments, Westbury, N.Y.) for 20 min; then 225 μl supernatant was diluted in 175 μl acetate buffer (pH 5.0). Another 225 μl was added to 175 μl 0.5 M NaOH to dissolve possible oligomeric depolymerization products to monomers. Half of the pellet was washed twice for 2.5 hr in 200 μl 2.5% SDS (v/v) in dH2O, the other half was washed twice in 200 μl HCO3^− buffer (pH: 9.1). Both sample supernatants and SDS and HCO3^− buffer supernatants were centrifuged 14,000 rpm for 20 min. and supernatants were added to 10 μl sodium dithionite (200 mg/ml dH2O) to reduce the heme monomers in solution to Fe^2+. All samples were measured in triplicate at 540 nm (Model UV1601 spectrophotometer, Shimradzu Corp, Columbia, Md.). The OD obtained from the blind sample was subtracted from the OD of the hemozoin containing sample.

Experiment [3] relates to hemozoin ingested by human monocytes. Description: Breakdown of macrophage-ingested hemozoin. Conditions: 25 μM compound, FIG. 1. Type of experiment: cell-based. As for the experimental part:
A further evaluation of compounds was performed for activity against pathophysiological effects of hemozoin on the host, using hemozoin-laden macrophages in culture. Freshly-isolated human monocytes were suspended in medium and hemozoin at a concentration reflective of the amount of hemozoin released into circulation during schizogony. In order to maximize contact between hemozoin and monocytes, the cell preparations were centrifuged for 5 sec at 150×g. Ingestion of hemozoin is essentially complete by two hours. Cells were then washed, plated and kept in a humidified incubator. The test compounds of the present invention were added to the wells at concentrations ranging from 0 to 20 mM. Macrophage viability was determined by direct microscopic examination (gross morphology and detachment from the well), trypan blue exclusion method, and LDH release. […] At various times post-treatment (1 hour; 3 hours), cells were lysed, extensively washed and spun down (2500×g) to pellet any cellular components including hemozoin. The lysates were then treated with alkali to dissolve hemozoin to give monomeric heme (35). Monomeric heme was quantified as described above.
Human monocytes were freshly isolated from a buffy coat from a normal donor using Percoll gradients. […] Cells were solubilized at various time points and hemozoin content determined by luminol-elicited chemiluminescence.

The test system of experiment [4] is P. falciparum. Briefly: P. falciparum growth in culture ([3H]-hypoxanthine incorporation). It counts as cell-based. Conditions: Table 2, aromatic bisguanylhydrazones; growth in culture, [3H]-hypoxanthine incorporation; read-out: IC50 vs. P. falc. The method, then: as §1
Parasite growth was determined by measuring incorporation of [^3H]-hypoxanthine into the nucleic acids of the parasite (18). Effects of the compounds of the present invention on parasite growth was determined by measuring the reduction in incorporation of radiolabel as compared to controls. Briefly, assays are performed in 96-well microtiter plates. After 24 h of candle jar incubation at 37° C., [^3H]-hypoxanthine is added to each well. After 18 h the plates are harvested onto glass fiber filter 96 well plates using a cell harvester, dried, and the amount of radioactivity is determined. Drug IC50 values (molar concentration which decreases [^3H]-hypoxanthine incorporation by 50% as compared to drug-free controls) are calculated by extrapolation of the log dose-response curves using curve fitting software (Origin, Microcal Software, Northampton, Mass.).
Parasites were grown in A^+ human erythrocyte suspensions using RPMI-1640 (GIBCO, Gaithersburg, Md.) medium supplemented by 25 mM HEPES (pH 7.35), 0.2% NaHCO3 (23 mM), 0.2% (D)-Glucose and 10% human A^+ plasma and maintained at 37° C. in candle jars according to the method of Trager and Jensen (20,21) Parasites are stage synchronized by incubating mainly ring-stage infected erythrocytes in 5% sorbitol for 10 minutes at room temperature (22). Cultures undergo one growth cycle (2 days) before use. Strains used include the chloroquine sensitive strains D10 and HB3, and the chloroquine resistant isolates Dd2 and FCR.
Parasite growth was determined by measuring incorporation of [^3H]-hypoxanthine into the nucleic acids of the parasite as previously described (23). Effects of the compounds of the present invention on parasite growth was determined by measuring the reduction in incorporation of radiolabel as compared to controls. Briefly, assays were performed in 96-well microtiter plates, each well containing 200 μl of synchronized ring-stage infected erythrocytes in complete media and 50 μl of drug dilution or solvent. The final hematocrit was 1.5% and percent parasitemias range from 2-8%. After 24 h of candle jar incubation at 37° C., 2.5 μCi of [^3H]-hypoxanthine (17 Ci/mmol, Amersham, Arlington Heights, Ill.) in RPMI-1640 media supplemented with 25 mM HEPES (pH 7.35), 0.2% NaHCO3 (23 mM), 0.2% (D)-Glucose is added to each well. After 18 h the plates were harvested onto glass fiber filter 96 well plates using a cell harvester, dried, and 25 μl scintillation acid added per well. The, amount of radioactivity was determined. Drug IC50 values (molar concentration which decreases [^3H]-hypoxanthine incorporation by 50% as compared to drug-free controls) are calculated by extrapolation of the log dose-response curves using curve fitting software (Origin, Microcal Software, Northampton, Mass.). The effects on parasite grown by aromatic guanyllhydrazones, bisguanylhydrazones, naphthothiazolium salts, and other compounds of the instant invention, together with data on hemozoin depolymerization from Example 5, are shown in tables 1 through 4, respectively.

Experiment [5] deals with freshly isolated human monocytes. Briefly: Spontaneous and PMA-elicited oxidative burst by freshly isolated human monocytes. Type of experiment: cell-based. Conditions: compound 25 uM, PMA 200 nM. As for the experimental part: Furthermore, Arese and colleagues have data supporting the role of the ingested hemozoin in macrophage dysfunction. Therefore, the compounds of the present invention were evaluated to assess their ability to induce recovery of macrophage effector functions induced by hemozoin. Initially, the effect of the compounds of the present invention were evaluated on spontaneous and PMA-elicited oxidative burst by freshly isolated human monocytes. As will be elaborated upon in the Examples below, freshly isolated human monocytes were plated at 5×10^6 cells/ml, and allowed to equilibrate to 37° C. for 1 h. Compounds of the instant invention were added at a final concentration of 25 uM and PMA added to 200 nM final concentration. Cell suspension aliquots were taken at 30, 60, and 120 minutes, and 14 hours. The oxidative burst was measured by luminol-elicited chemiluminescence for 30 sec., and data expressed as counts per 0.5×10^6 cells.

Molecules are shown by their SMILES. Like-named read-outs stand apart in the source and are kept apart here.

As usually defined, the IC50 is the midpoint of a concentration-inhibition curve.

Consider `Cc1c(O)c2ccccc2c2c1sc(NCCCN1CCN(C)CC1)[n+]2C.[Cl-]` [1,2-dihydro-1,4-dimethyl-2-[[3-(4-methyl-1-piperazinyl)propyl]imino]naphtho[1,2-d]thiazol-5-ol trihydrochloride], for which the 50% inhibitory concentration (IC50) is 0.075 µM in the experiment on P. falciparum [1] and 0.5 µM in experiment [2]. In addition, in the experiment on synthetic hemozoin (Table 3), the “% depol. hemoz.” value stood at 2.0%.
Consider `Cc1cc(C=NNC(=N)N)c(O)c(C=NNC(=N)N)c1` [2,2′-[(2-hydroxy-5-methyl-1,3-phenylene)dimethylidyne]bis(hydrazinecarboximidamide)], for which, in experiment [3], the “hemozoin content of monocytes after phagocytosis of hemozoin (luminol-elicited chemiluminescence)” value is recorded as “significant reduction of hemozoin”. For the same compound, the “% depol. hemoz.” value in the experiment on synthetic hemozoin (Table 2) came to 2.3%. Further, the concentration for half-maximal inhibition (IC50) in the experiment on P. falciparum [4] is 0.2 µM.
On to `Cc1c(O)c2ccccc2c2c1sc(NC1CCCCC1)[n+]2CCCN(C)C.Cl.[Cl-]` [2-(cyclohexylimino)-1,2-dihydro-4-methyl-1-[3-(dimethylamino)propyl]naphtho[1,2-d]thiazol-5-ol dihydrochloride], for which the “hemozoin content of monocytes after phagocytosis of hemozoin (luminol-elicited chemiluminescence)” value in experiment [3] was “hemozoin-dissolving ability”. The IC50 (in the experiment with P. falciparum [1]; in experiment [2]) was 0.075 µM in each case. In addition, in the experiment with synthetic hemozoin (Table 3), the “% depol. hemoz.” value came to 2.2%. Further, in experiment [5], the “oxidative burst (luminol-elicited chemiluminescence)” value is listed as “strong inhibitor”.
